According to patent publication US7572775B2, “Method of inhibiting intestinal polyps” (Japan as Represented by Director General of Agency of …, priority 2004, dated 2009):
Marks after values point to notes of the source that are not given here.

Tested on: Min mice of a familial adenomatous polyposis model (Apc gene deficient mice, C57BL/6-ApcMin/+)
Assay: Intestinal polyp suppression test (intestinal polyp assay) in Min mice
Assay type: in vivo, mouse
Details: for Number of polyps/mouse, colon / Number of polyps/mouse, small intestine, central / Number of polyps/mouse, small intestine, distal / Number of polyps/mouse, small intestine, proximal / Number of polyps/mouse, total / Number of polyps, percentage of the result for the 0 dose (control) group, small intestine, central / Number of polyps, percentage of the result for the 0 dose (control) group, small intestine, distal / Number of polyps, percentage of the result for the 0 dose (control) group, small intestine, proximal / Number of polyps, percentage of the result for the 0 dose (control) group, colon / Number of polyps, percentage of the result for the 0 dose (control) group, total: male Min mice; for Number of polyps/mouse, colon / Number of polyps/mouse, small intestine, central / Number of polyps/mouse, small intestine, distal / Number of polyps/mouse, small intestine, proximal / Number of polyps/mouse, total: average ± SE; for Number of polyps, percentage of the result for the 0 dose (control) group, small intestine, proximal: p < 0.01 vs control
Description: The experimental animals were male Min mice of a familial adenomatous polyposis model (Apc (Adenomatous polyposis coli) gene deficient mice, C57BL/6-ApcMin/+, Jackson Laboratory, Bar Harbor, Me.). These mice were purchased at age 5 weeks, and acclimatized for 2 weeks to laboratory conditions (24±2° C., humidity 55%, 12 hours light/12 hours dark cycle, free access to feed and water) before being used in the tests. The feed was “AIN-76A” basic feed (Clea Japan).
Wild-type […] mice (from the same source) were subjected to the same test as a control.
Compound A was used as the experimental medicine. The compound was mixed to a specific concentration (400 ppm or 800 ppm) with the AIN-76A basic feed for use in the tests.
Feed comprising a specific amount of the experimental medicine mixed to a specific concentration with basic feed (AIN-76A) was administered to the experimental group mice (2 groups of 10 mice) and comparison group mice (1 group of 10 mice) for 13 weeks from age 7 weeks to age 20 weeks (natural feeding). When death was confirmed during the experiment, however, administration was naturally discontinued.
A group of 10 mice receiving basic feed (AIN-76A) without the experimental medicine added for the same length of time was set up as a control group (experimental drug non-administration group).
13 weeks after the start of the experiment the mice in all groups (excluding those which had died) were euthanized, and an intestinal polyp assay was performed as follows.
The intestines were removed from the mice in all groups, placed in phosphate buffer containing 10% formalin, and then separated into four parts: (1) the colon, (2) the proximal part of the small intestine (about 4 cm long beginning at the pylorus), (3) the central part of the small intestine (the center of the remaining half of the small intestine) and (4) the distal part of the small intestine (the distal part of the remaining half of the small intestine). Each part was opened longitudinally, and fixed flat between sheets of filter paper in phosphate buffer containing 10% formalin.
The number and size of polyps and their distribution in the intestines were counted, measured and evaluated under a stereoscopic microscope. These methods are described in the literature reference(Watanabe, K. et al., “Role of the prostaglandin E receptor subtype EP1 in colon carcinogenesis”, Cancer Res., 59, 5093-6 (1999)).

[1] = 400 ppm in AIN-76A feed for 13 weeks
[2] = 400 ppm in feed for 13 weeks, p < 0.05 vs control
[3] = 800 ppm in AIN-76A feed for 13 weeks
[4] = 800 ppm in feed for 13 weeks, p < 0.05 vs control

SMILES: CCOP(=O)(Cc1ccc(C(=O)Nc2ccc(Br)cc2C#N)cc1)OCC [Compound A, 4-diethoxyphosphinoylmethyl-N-(4-bromo-2-cyanophenyl)benzamide]
- Number of polyps by polyp diameter (FIG. 1) (400 ppm and 800 ppm in feed, Min mice, polyp diameter (mm)): reduction in the number of polyps of all sizes
- Number of polyps/mouse, colon [1]: 0.4 ± 0.2 polyps/mouse
- Number of polyps/mouse, small intestine, central [1]: 16.1 ± 3.8 polyps/mouse
- Number of polyps/mouse, small intestine, distal [1]: 33.0 ± 6.5 polyps/mouse
- Number of polyps/mouse, small intestine, proximal [1]: 8.5 ± 1.4 polyps/mouse
- Number of polyps/mouse, total [1]: 58.0 ± 10.8 polyps/mouse
- Number of polyps, percentage of the result for the 0 dose (control) group, small intestine, central (400 ppm in feed for 13 weeks): (43) percentage
- Number of polyps, percentage of the result for the 0 dose (control) group, small intestine, distal (400 ppm in feed for 13 weeks): (55) percentage
- Number of polyps, percentage of the result for the 0 dose (control) group, small intestine, proximal (400 ppm in feed for 13 weeks): (37)^d percentage
- Number of polyps, percentage of the result for the 0 dose (control) group, colon [2]: (38)^c percentage
- Number of polyps, percentage of the result for the 0 dose (control) group, total [2]: (48)^c percentage
- Mice that died during the experiment (death due to bleeding from polyps) (400 ppm in feed, group of 10 Min mice, 13 weeks, 3 died in the control group): 2 mice
- Number of polyps/mouse, colon [3]: 0.3 ± 0.2 polyps/mouse
- Number of polyps/mouse, small intestine, central [3]: 13.8 ± 2.6 polyps/mouse
- Number of polyps/mouse, small intestine, distal [3]: 30.5 ± 5.0 polyps/mouse
- Number of polyps/mouse, small intestine, proximal [3]: 5.9 ± 1.0 polyps/mouse
- Number of polyps/mouse, total [3]: 50.5 ± 7.8 polyps/mouse
- Number of polyps, percentage of the result for the 0 dose (control) group, small intestine, proximal (800 ppm in feed for 13 weeks): (26)^d percentage
- Number of polyps, percentage of the result for the 0 dose (control) group, colon [4]: (30)^c percentage
- Number of polyps, percentage of the result for the 0 dose (control) group, small intestine, central [4]: (37)^c percentage
- Number of polyps, percentage of the result for the 0 dose (control) group, small intestine, distal [4]: (51)^c percentage
- Number of polyps, percentage of the result for the 0 dose (control) group, total [4]: (42)^c percentage
- Polyp suppression effect (dosage of either 400 ppm or 800 ppm in feed, Min mice): excellent polyp suppression effect
